{"source": "patent US20250082774A1", "about": "“PEPTIDE LINKERS COMPRISING TWO OR MORE PAYLOADS” (ARARIS BIOTECH AG, priority 2022, published 2025)", "key": {"[1]": {"system": "SUM190PT (Nectin-4-positive, solid tumor) xenograft", "test": "Tumor growth inhibition in SUM190PT xenograft model", "assay_type": "in vivo, CB17 SCID mice", "conditions": "single i.v. injection", "procedure": "For SUM190PT xenografts, 2×10^6 cells were injected into the mammary fat pad of CB17 SCID mice (Janvier). Tumor dimensions and body weights were recorded three times weekly. The tumor volume was calculated according to the formula volume=(width)^2×length×0.5. When the average tumor size reached about 200 mm^3, mice were allocated using a non-random stratification protocol into the treatment groups comprising six mice each. ADCs were intravenously injected once on the day of randomization. The ADCs according to this invention were produced in-house as described in Example 2. Enfortumab vedotin (DAR 4) was commercially available, bought from a pharmacy. ARA-04-MMAE-PABC-AA-C2-RKAA-PABC-MMAE (DAR 4.0) and ARA-04-RKAA-PABC-(MMAE)2 (DAR 3.8) were injected at ADC doses corresponding to 10 μg payload dose per kg mouse weight (10 μg/kg). Enfortumab vedotin (DAR 4) was injected 15 μg payload dose per kg mouse weight (15 μg/kg). Mice in the control group were injected with PBS. All mouse experiments were performed in accordance with Swiss guidelines and were approved by the Veterinarian Office of Zurich, Switzerland."}, "[2]": {"molecular_target": "RNA-polymerase II (Homo sapiens, UniProt P24928)", "conditions": "read-out: KD of the complex between amanitin and RNA-polymerase II; cited from earlier work"}, "[3]": {"system": "various tumor cell lines", "conditions": "cited from earlier work"}, "[4]": {"conditions": "10 μg/kg payload dose, six mice per group"}}, "note": "“Also recorded” adds a separate entry of the source."}
{"compound": "Enfortumab vedotin [reference compound]", "values": [{"measurement": "animals with marked regrowth after day 40", "setting": "[1]; 15 μg/kg payload dose", "result": "6/6"}, {"measurement": "anti-tumor response (in words)", "setting": "[1]; 15 μg/kg payload dose, six mice per group", "result": "transient tumor regression with no tumor-free individuals at 20 days after treatment"}]}
{"compound": "amanitin", "values": [{"measurement": "Kd", "setting": "[2]", "result": 3, "unit": "nM"}]}
{"compound": "ARA-04-RKAA-PABC-(MMAE)2: anti-Nectin-4 ADC (DAR 3.8), same antibody and payload as Enfortumab vedotin, payloads only at C-terminal end of peptide linker", "values": [{"measurement": "anti-tumor response (in words)", "setting": "[1]; [4]", "result": "tumor control for approximately 20 days in 6/6 mice followed by re-growth of tumors; also recorded: active in vivo"}]}
{"compound": "CC[C@H](C)[C@H](NC(=O)[C@H]1CCCCN1C)C(=O)N(COC(=O)CC(C)C)[C@H](C[C@@H](OC(C)=O)c1nc(C(=O)N[C@@H](Cc2ccc(O)cc2)C[C@H](C)C(=O)O)cs1)C(C)C", "note": "[Tubulysin A]", "values": [{"measurement": "IC50, cytostatic effects", "setting": "[3]", "result": "picomolar range"}]}
{"compound": "ARA-04-MMAE-PABC-AA-C2-RKAA-PABC-MMAE: anti-Nectin-4 ADC (DAR 4.0), same antibody and payload as Enfortumab vedotin, payloads at N- and C-terminal end of peptide linker", "values": [{"measurement": "anti-tumor response (in words)", "setting": "[1]; [4]", "result": "active in vivo; also recorded: superior efficacy providing survival advantage"}, {"measurement": "mice with complete long-lasting responses", "setting": "[1]; [4]", "result": "4/6"}]}
